Experimental data as given in patent US20240199635A1, “TETRAHYDROTHIENO PYRIDINE DERIVATIVES AS DDRS INHIBITORS” (CHIESI FARMACEUTICI S.P.A., priority 2021, published 2024).

How the values were obtained:
DDR2 [1] = biological target: T1, DDR2 (Homo sapiens (Human), UniProt Q16832); experiment: DDR2 cell based assay (phospho-ELISA in HEK293T-DDR2 recombinant cells); conditions: DDR2 phosphorylation, Type II Collagen stimulation, potency class, read-out: IC50DDR2
Procedure: The inhibition of DDR2 phosphorylation by compounds was evaluated in HEK293T-DDR2 recombinant cells by phospho-ELISA assay. Briefly, HEK293T-DDR2 cells were seeded in poly-D-lysine-coated 24-well plates at a density of 250,000 cells/well and incubated for 1.5 hours at 37° C. and 5% CO2 in DMEM+10% FBS. After that, the medium was changed to serum-free DMEM and cells were incubated for 3 hours. Then. test compounds were added at different concentrations 30 minutes before stimulation with bovine Type II Collagen at […] for further 3 hours. For DDR2 phospho-ELISA assay (DuoSet IC Human Phospho-DDR2; R&D Systems), protein extracts were obtained by adding 60 μl/well of lysis buffer prepared according to the manufacturer's instructions. Protein concentration in the samples was determined by BCA assay and the levels of phospho-DDR2 were determined following R&D Systems indications. Raw data were normalized to maximal inhibition control (0% for normalization) and positive control (100% for normalization; cells treated with 20 μg/ml collagen II) and IC50 parameters were calculated in GraphPad Prism 8.0 software, using sigmoidal dose-response curve fitting with variable slope.

DDR1 [2] = biological target: T2, DDR1 (Homo sapiens (Human), UniProt Q08345); experiment: DDR1 binding assay (LanthaScreen Europium Kinase Binding assay); conditions: potency class, read-out: Ki DDR1
Outline: (§1)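 TR-FRET tracer displacement: compounds incubated 1 h at room temperature with 5 nM DDR1 (20 nM Tracer 178) or 5 nM DDR2 (10 nM Tracer 178), 2 nM Eu-anti-GST antibody, HEPES pH 7.5 buffer. 665/615 nm ratio read; IC50 from 4-parameter fit, converted to Ki by Cheng-Prusoff.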

DDR2 [3] = biological target: T1, DDR2; experiment: DDR2 binding assay (LanthaScreen Europium Kinase Binding assay); conditions: potency class, read-out: Ki DDR2
Outline: as §1

DDR1 [4] = biological target: T2, DDR1; experiment: DDR1 cell based assay (PathHunter U2OS DDR1 assay); conditions: U2OS-DDR1 cells, Type II Collagen stimulation, potency class
Outline: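 Receptor activation measured by enzyme-fragment complementation luminescence in engineered U2OS cells. Compound added 30 min before overnight challenge with 20 μg/ml bovine collagen II; data scaled between vehicle and collagen-stimulated controls, IC50 derived by four-parameter variable-slope fitting.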

T2 sequence (Q08345 19-913): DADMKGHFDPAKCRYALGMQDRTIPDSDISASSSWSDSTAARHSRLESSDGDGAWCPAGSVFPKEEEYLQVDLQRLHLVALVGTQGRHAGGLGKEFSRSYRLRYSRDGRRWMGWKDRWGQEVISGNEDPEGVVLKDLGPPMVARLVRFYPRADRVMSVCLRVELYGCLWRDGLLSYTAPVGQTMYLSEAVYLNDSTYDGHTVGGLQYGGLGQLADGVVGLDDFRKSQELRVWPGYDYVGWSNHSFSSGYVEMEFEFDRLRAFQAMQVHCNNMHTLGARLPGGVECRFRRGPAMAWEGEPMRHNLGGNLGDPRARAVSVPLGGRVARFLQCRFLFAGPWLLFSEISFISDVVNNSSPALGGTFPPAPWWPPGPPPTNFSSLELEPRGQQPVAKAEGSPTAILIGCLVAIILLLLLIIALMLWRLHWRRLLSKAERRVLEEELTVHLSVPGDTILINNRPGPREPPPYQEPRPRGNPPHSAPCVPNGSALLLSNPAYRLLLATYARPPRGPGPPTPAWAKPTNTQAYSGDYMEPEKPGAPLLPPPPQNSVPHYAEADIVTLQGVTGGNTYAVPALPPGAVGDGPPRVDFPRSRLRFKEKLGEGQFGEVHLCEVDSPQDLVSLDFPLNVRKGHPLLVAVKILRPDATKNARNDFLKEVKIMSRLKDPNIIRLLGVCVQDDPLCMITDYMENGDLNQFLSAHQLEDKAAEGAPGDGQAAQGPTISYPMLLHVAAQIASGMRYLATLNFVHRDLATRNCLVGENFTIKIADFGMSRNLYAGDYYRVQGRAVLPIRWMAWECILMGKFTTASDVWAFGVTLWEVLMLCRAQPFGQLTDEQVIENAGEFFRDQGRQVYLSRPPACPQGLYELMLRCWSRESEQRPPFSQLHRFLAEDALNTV
T1 sequence (Q16832 22-855): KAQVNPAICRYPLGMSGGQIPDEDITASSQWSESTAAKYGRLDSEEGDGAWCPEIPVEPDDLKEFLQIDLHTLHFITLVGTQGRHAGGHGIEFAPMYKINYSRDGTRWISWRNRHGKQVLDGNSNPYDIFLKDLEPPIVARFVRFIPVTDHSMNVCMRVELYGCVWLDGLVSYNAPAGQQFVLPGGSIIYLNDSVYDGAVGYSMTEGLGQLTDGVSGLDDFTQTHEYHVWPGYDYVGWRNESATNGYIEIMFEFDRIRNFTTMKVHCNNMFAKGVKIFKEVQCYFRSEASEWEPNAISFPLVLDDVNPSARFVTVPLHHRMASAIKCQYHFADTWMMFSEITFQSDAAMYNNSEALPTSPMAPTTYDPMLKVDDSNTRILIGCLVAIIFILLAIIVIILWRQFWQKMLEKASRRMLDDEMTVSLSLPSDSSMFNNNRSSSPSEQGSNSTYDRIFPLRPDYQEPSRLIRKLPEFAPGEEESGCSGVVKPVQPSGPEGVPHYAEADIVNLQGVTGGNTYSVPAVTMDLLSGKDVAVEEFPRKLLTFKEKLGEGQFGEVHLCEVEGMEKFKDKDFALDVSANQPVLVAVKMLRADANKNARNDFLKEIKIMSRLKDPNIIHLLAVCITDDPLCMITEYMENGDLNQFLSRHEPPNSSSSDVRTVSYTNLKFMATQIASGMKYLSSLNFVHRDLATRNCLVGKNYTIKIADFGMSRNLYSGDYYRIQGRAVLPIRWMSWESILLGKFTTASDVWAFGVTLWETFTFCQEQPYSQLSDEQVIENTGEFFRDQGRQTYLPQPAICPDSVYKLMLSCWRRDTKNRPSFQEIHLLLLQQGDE

Question: How did the IC50 (DDR2 [1]) turn out when `CC(F)(F)c1cccc(NC(=O)c2csc3c2CCN(Cc2cnc(N)nc2)C3)c1` [Example 58, 6-((2-aminopyrimidin-5-yl)methyl)-N-(3-(1,1-difluoroethyl)phenyl)-4,5,6,7-tetrahydrothieno[2,3-c]pyridine-3-carboxamide] was run?
Answer: Its IC50 is 0.025 to 0.05 µM.

Question: And the Ki (DDR1 [2])?
Answer: The Ki was less than 0.025 µM.

Question: What about the Ki (DDR2 [3]) of the same molecule?
Answer: Its Ki is less than 0.025 µM.

Question: And the IC50 (DDR1 [4])?
Answer: The IC50 was 0.025 to 0.05 µM.

Question: Which results are given for `CC(C)(C)c1cc(NC(=O)c2csc3c2CCN(Cc2cnc(N)nc2)C3)no1` [Example 64, 6-((2-aminopyrimidin-5-yl)methyl)-N-(5-(tert-butyl)isoxazol-3-yl)-4,5,6,7-tetrahydrothieno[2,3-c]pyridine-3-carboxamide]?
Answer: IC50 (DDR2 [1]): < 0.025 µM; Ki (DDR1 [2]): < 0.025 µM; Ki (DDR2 [3]): < 0.025 µM; IC50 (DDR1 [4]): < 0.025 µM

Question: How did the IC50 (DDR2 [1]) turn out when `O=C(Nc1cccc(C(F)(F)F)c1)c1csc2c1CCN(Cc1cncnc1)C2` [Example 5, 6-(pyrimidin-5-ylmethyl)-N-(3-(trifluoromethyl)phenyl)-4,5,6,7-tetrahydrothieno[2,3-c]pyridine-3-carboxamide] was run?
Answer: Its IC50 is less than 0.025 µM.

Question: What about the Ki (DDR1 [2]) of the same molecule?
Answer: The Ki was less than 0.025 µM.

Question: And the Ki (DDR2 [3])?
Answer: The Ki was less than 0.025 µM.

Question: What about the IC50 (DDR1 [4]) of the same molecule?
Answer: Its IC50 is 0.025 to 0.05 µM.

Question: `Nc1ncncc1CN1CCc2c(C(=O)Nc3cc(F)cc(C(F)(F)F)c3)csc2C1` [Example 45, 6-((4-aminopyrimidin-5-yl)methyl)-N-(3-fluoro-5-(trifluoromethyl)phenyl)-4,5,6,7-tetrahydrothieno[2,3-c]pyridine-3-carboxamide] was tested. Which IC50 (DDR2 [1]) did it give?
Answer: Its IC50 is less than 0.025 µM.

Question: And the Ki (DDR1 [2])?
Answer: Its Ki is less than 0.025 µM.

Question: What about the Ki (DDR2 [3]) of the same molecule?
Answer: Its Ki is less than 0.025 µM.

Question: What about the IC50 (DDR1 [4]) of the same molecule?
Answer: Its IC50 is less than 0.025 µM.

Question: Which results are given for `Cn1nc(NC(=O)c2csc3c2CCN(Cc2cnc(N)nc2)C3)cc1C(C)(C)C` [Example 63, 6-((2-aminopyrimidin-5-yl)methyl)-N-(5-(tert-butyl)-1-methyl-1H-pyrazol-3-yl)-4,5,6,7-tetrahydrothieno[2,3-c]pyridine-3-carboxamide]?
Answer: IC50 (DDR2 [1]): < 0.025 µM; Ki (DDR1 [2]): < 0.025 µM; Ki (DDR2 [3]): < 0.025 µM; IC50 (DDR1 [4]): < 0.025 µM

Question: Which IC50 (DDR2 [1]) does the source give for `Cn1cc(Nc2ncc(CN3CCc4c(C(=O)Nc5cc(C(C)(C)C)nn5C)csc4C3)cn2)cn1` [Example 16, N-(3-(tert-butyl)-1-methyl-1H-pyrazol-5-yl)-6-((2-((1-methyl-1H-pyrazol-4-yl)amino)pyrimidin-5-yl)methyl)-4,5,6,7-tetrahydrothieno[2,3-c]pyridine-3-carboxamide] here?
Answer: The IC50 was less than 0.025 µM.

Question: What about the Ki (DDR1 [2]) of the same molecule?
Answer: The Ki was less than 0.025 µM.

Question: What about the Ki (DDR2 [3]) of the same molecule?
Answer: Its Ki is less than 0.025 µM.

Question: And the IC50 (DDR1 [4])?
Answer: Its IC50 is less than 0.025 µM.

Question: What does the source list for `CN(C)CC(=O)Nc1cncc(CN2CCc3c(C(=O)Nc4cccc(C(F)(F)F)c4)csc3C2)c1` [Example 31, 6-((5-(2-(dimethylamino)acetamido)pyridin-3-yl)methyl)-N-(3-(trifluoromethyl)phenyl)-4,5,6,7-tetrahydrothieno[2,3-c]pyridine-3-carboxamide]?
Answer: IC50 (DDR2 [1]): 0.025 to 0.05 µM; Ki (DDR1 [2]): < 0.025 µM; Ki (DDR2 [3]): < 0.025 µM; IC50 (DDR1 [4]): 0.025 to 0.05 µM

Question: How did the IC50 (DDR2 [1]) turn out when `Nc1nccnc1CN1CCc2c(C(=O)Nc3cc(F)cc(C(F)(F)F)c3)csc2C1` [Example 46, 6-((3-aminopyrazin-2-yl)methyl)-N-(3-fluoro-5-(trifluoromethyl)phenyl)-4,5,6,7-tetrahydrothieno[2,3-c]pyridine-3-carboxamide] was run?
Answer: Its IC50 is less than 0.025 µM.

Question: And the Ki (DDR1 [2])?
Answer: Its Ki is less than 0.025 µM.

Question: And the Ki (DDR2 [3])?
Answer: Its Ki is less than 0.025 µM.

Question: What about the IC50 (DDR1 [4]) of the same molecule?
Answer: Its IC50 is less than 0.025 µM.

Question: `Cn1cc(Nc2ncc(CN3CCc4c(C(=O)Nc5cccc(C(F)(F)F)c5)csc4C3)cn2)cn1` [Example 18, 6-((2-((1-methyl-1H-pyrazol-4-yl)amino)pyrimidin-5-yl)methyl)-N-(3-(trifluoromethyl)phenyl)-4,5,6,7-tetrahydrothieno[2,3-c]pyridine-3-carboxamide] was tested. Which IC50 (DDR2 [1]) did it give?
Answer: The IC50 was less than 0.025 µM.

Question: What about the Ki (DDR1 [2]) of the same molecule?
Answer: The Ki was less than 0.025 µM.

Question: What about the Ki (DDR2 [3]) of the same molecule?
Answer: The Ki was less than 0.025 µM.

Question: What about the IC50 (DDR1 [4]) of the same molecule?
Answer: The IC50 was less than 0.025 µM.

Question: Which IC50 (DDR2 [1]) does the source give for `CC(=O)Nc1ncc(CN2CCc3c(C(=O)Nc4cc(F)cc(C(F)(F)F)c4)csc3C2)cn1` [Example 39, 6-((2-acetamidopyrimidin-5-yl)methyl)-N-(3-fluoro-5-(trifluoromethyl)phenyl)-4,5,6,7-tetrahydrothieno[2,3-c]pyridine-3-carboxamide] here?
Answer: Its IC50 is 0.025 to 0.05 µM.

Question: What about the Ki (DDR1 [2]) of the same molecule?
Answer: Its Ki is less than 0.025 µM.

Question: What about the Ki (DDR2 [3]) of the same molecule?
Answer: The Ki was less than 0.025 µM.

Question: What about the IC50 (DDR1 [4]) of the same molecule?
Answer: Its IC50 is 0.025 to 0.05 µM.

Question: For `CC(=O)Nc1ccc(CN2CCc3c(C(=O)Nc4cc(F)cc(C(F)(F)F)c4)csc3C2)cn1` [Example 42, 6-((6-acetamidopyridin-3-yl)methyl)-N-(3-fluoro-5-(trifluoromethyl)phenyl)-4,5,6,7-tetrahydrothieno[2,3-c]pyridine-3-carboxamide], which IC50 (DDR2 [1]) is on record?
Answer: Its IC50 is less than 0.025 µM.

Question: And the Ki (DDR1 [2])?
Answer: Its Ki is less than 0.025 µM.

Question: What about the Ki (DDR2 [3]) of the same molecule?
Answer: The Ki was less than 0.025 µM.

Question: And the IC50 (DDR1 [4])?
Answer: Its IC50 is less than 0.025 µM.

Question: `Nc1ncc(CN2CCc3c(C(=O)Nc4cc(F)cc(C(F)(F)F)c4)csc3C2)cn1` [Example 38, 6-((2-aminopyrimidin-5-yl)methyl)-N-(3-fluoro-5-(trifluoromethyl)phenyl)-4,5,6,7-tetrahydrothieno[2,3-c]pyridine-3-carboxamide] was tested. Which IC50 (DDR2 [1]) did it give?
Answer: Its IC50 is less than 0.025 µM.

Question: What about the Ki (DDR1 [2]) of the same molecule?
Answer: Its Ki is less than 0.025 µM.

Question: And the Ki (DDR2 [3])?
Answer: The Ki was less than 0.025 µM.

Question: What about the IC50 (DDR1 [4]) of the same molecule?
Answer: The IC50 was less than 0.025 µM.

Question: `O=C(Nc1cc(F)cc(C(F)(F)F)c1)c1csc2c1CCN(Cc1cncnc1)C2` [Example 4, N-(3-fluoro-5-(trifluoromethyl)phenyl)-6-(pyrimidin-5-ylmethyl)-4,5,6,7-tetrahydrothieno[2,3-c]pyridine-3-carboxamide] was tested. Which IC50 (DDR2 [1]) did it give?
Answer: Its IC50 is less than 0.025 µM.

Question: What about the Ki (DDR1 [2]) of the same molecule?
Answer: Its Ki is less than 0.025 µM.

Question: What about the Ki (DDR2 [3]) of the same molecule?
Answer: The Ki was less than 0.025 µM.

Question: What about the IC50 (DDR1 [4]) of the same molecule?
Answer: The IC50 was less than 0.025 µM.
